Results: ChEMBL document CHEMBL1201862, “PubChem BioAssay data set” (2004)
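96-well plates; 48 h exposure; 5 concentrations. Endpoints by linear interpolation between flanking doses. Not reached: highest tested concentration assigned. GI50: concentration for 50% inhibition of growth.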 Active and inactive are the calls of the source. Cut-off read from the data, not from the text of the source: active = GI50 up to about 1.1 µM and inactive = higher.

Assays:
Experiment in all cases: growth of human tumour cells (NCI), 48 h
MDA-MB-231 = tested on: MDA-MB-231
U-251 = tested on: U-251
NCI-H23 = tested on: NCI-H23
HCC 2998 = tested on: HCC 2998
A549 = tested on: A549
OVCAR-4 = tested on: OVCAR-4
NCI-H522 = tested on: NCI-H522
HCT-116 = tested on: HCT-116
SK-MEL-5 = tested on: SK-MEL-5
MDA-N = tested on: MDA-N
OVCAR-3 = tested on: OVCAR-3
SNB-19 = tested on: SNB-19
KM12 = tested on: KM12
CAKI-1 = tested on: CAKI-1
Hs-578T = tested on: Hs-578T
MOLT-4 = tested on: MOLT-4
UACC-62 = tested on: UACC-62
COLO 205 = tested on: COLO 205
SK-OV-3 = tested on: SK-OV-3
BT-549 = tested on: BT-549

Measured: GI50

CCOC(=O)c1ccc(C(=O)OCC)n1-c1cc2cc(c1)CSCc1cc(cc(-n3c(C(=O)OCC)ccc3C(=O)OCC)c1)CSC2
inactive: MDA-MB-231 > 10 µM | U-251 > 10 µM | NCI-H23 > 10 µM | HCC 2998 > 10 µM | A549 > 10 µM | OVCAR-4 > 10 µM | NCI-H522 > 10 µM | HCT-116 > 10 µM | SK-MEL-5 > 10 µM | MDA-N > 10 µM | OVCAR-3 > 10 µM | SNB-19 > 10 µM | KM12 > 10 µM | CAKI-1 > 10 µM | Hs-578T > 10 µM | MOLT-4 > 10 µM | UACC-62 > 10 µM | COLO 205 > 10 µM | SK-OV-3 > 10 µM | BT-549 > 10 µM

COc1cc(C2c3cc4c(cc3OC(NC3CCCCC3)C2C)OCO4)cc(OC)c1OC (stereo not given)
active: MDA-MB-231 0.393 µM | U-251 0.467 µM | NCI-H23 0.499 µM | A549 0.885 µM | OVCAR-4 0.615 µM | NCI-H522 0.359 µM | HCT-116 0.47 µM | SK-MEL-5 0.362 µM | MDA-N 0.188 µM | OVCAR-3 0.267 µM | SNB-19 0.45 µM | KM12 0.407 µM | CAKI-1 0.409 µM | Hs-578T 0.377 µM | MOLT-4 0.48 µM | UACC-62 0.379 µM | COLO 205 0.241 µM | SK-OV-3 0.394 µM | BT-549 0.649 µM
inactive: HCC 2998 1.5 µM

CC(C)c1cc(C(C)C)c(P2(=O)CC3C(Cl)(Cl)C3(C)C2)c(C(C)C)c1 (stereo not given)
inactive: MDA-MB-231 11.4 µM | U-251 8.67 µM | NCI-H23 9.55 µM | HCC 2998 13.4 µM | A549 9.33 µM | OVCAR-4 4.94 µM | NCI-H522 2.09 µM | HCT-116 7.29 µM | SK-MEL-5 10.1 µM | MDA-N 10.9 µM | OVCAR-3 7.57 µM | SNB-19 7.91 µM | KM12 10.6 µM | CAKI-1 4.71 µM | Hs-578T 17.3 µM | MOLT-4 2.77 µM | UACC-62 8.04 µM | COLO 205 11.7 µM | SK-OV-3 16.4 µM | BT-549 13.7 µM
